A short description of assay [1]: AFM force between Z-Cat-Ben SAM on silica and a silica bead. To be noted: SAM on silica from 5 mM. It is filed as physicochemical. From the text:
The pristine self-assemble of the Z-Cat-Ben molecules on silica surface exposed the aromatic residues to the air-water interface resulting in a low interfacial energy between a silica bead and the SAM surface as measured with the AFM technique (Wad˜0.07 mJ/m^2, see FIG. 47). This is unlike the strong adhesion of SAMs exposing catechol residues to the air water interface that bind to silica surface through hydrogen bonding interactions (Wad˜7.7 mJ/m^2).

Assay [2] can be described thus: Shear bonding strength of the lap joint. The settings on record: cross-sectional area 2.54 cm×2.54 cm, n=4. The method, then: The catecholic zwitterions were inspired by interfacial proteins (mfp-3 and -5) that function as adhesive primers, but not as bulk adhesives. To determine whether Z-Cat-C10 is limited to surface binding or develops measurable bulk cohesion (thickness […]), bulk rupture tests were done using a peeling-by-bending test to better mimic the role that interfacial proteins play in resisting plaque detachment as well as lap-shear bonding test. Lap joints were prepared by gluing two steel plates (SS304) immersed in water using the lower dense coacervate (˜10 μl) (FIGS. 24A-24H). The lap joint (cross-sectional area=2.54 cm×2.54 cm) prepared in artificial seawater or periodate solution, respectively, held a load up to 3 N underwater. […] After 12 h ambient drying, the joint prepared in 1 M periodate solution held much higher load, 11 N: Standard three point bending peel strength of the lap joint (cross-sectional area=2.54 cm×1.27 cm) was measured under ambient dry conditions after drying 12 h. […] Shear bonding strength of the lap joint (cross-sectional area=2.54 cm×2.54 cm) was also measured, 1.1 MPa (standard deviation=0.3, n=4)—similar to Dopa-functionalized polypeptide prepared under ambient dry conditions, 0.9 MPa. […]

Assay [3] can be described thus: Lap joint bending peel test. The protocol: Below are the detailed methods following in sequential order in time: • 1) The aqueous Z-Cat-C10 solution was prepared at 100 mg ml^−1 concentration (very turbid solution at room temperature) (FIG. 10A test-tube on the left). • 2) The solution was centrifuged at 3000 rpm (805×g) for 5 min to expedite the process of liquid-liquid phase separation (FIG. 10A test-tubes in the middle and the right). 3) The lower dense coacervate phase was collected in a syringe (FIG. 24A) and injected (spread, ˜10 μl) over a steel plate immersed in water i.e., artificial sea water, aqueous periodate solution, and DI water, respectively (FIG. 24B). • 4) Another steel plate glued onto the steel plate with coacervates on as a lap joint (cross-sectional area 2.54 cm×2.54 cm. • 5) The each lap joint was loaded (250 g) for 12 h of compressive setting (FIG. 24C). • 6) The lap joint bending peel test was conducted underwater for each lap joint prepared in artificial seawater, aqueous periodate solution, and DI water, respectively (FIGS. 24D-24F). • 7) The lap joint bending peel test was conducted dry ambient condition for the lap joint prepared in the periodate solution after 12 h drying in ambient condition Standard Three Point Bending Peel Test
The catecholic zwitterions were inspired by interfacial proteins (mfp-3 and -5) that function as adhesive primers, but not as bulk adhesives. To determine whether Z-Cat-C10 is limited to surface binding or develops measurable bulk cohesion (thickness […]), bulk rupture tests were done using a peeling-by-bending test to better mimic the role that interfacial proteins play in resisting plaque detachment as well as lap-shear bonding test. Lap joints were prepared by gluing two steel plates (SS304) immersed in water using the lower dense coacervate (˜10 μl) (FIGS. 24A-24H). The lap joint (cross-sectional area=2.54 cm×2.54 cm) prepared in artificial seawater or periodate solution, respectively, held a load up to 3 N underwater. […] After 12 h ambient drying, the joint prepared in 1 M periodate solution held much higher load, 11 N: Standard three point bending peel strength of the lap joint (cross-sectional area=2.54 cm×1.27 cm) was measured under ambient dry conditions after drying 12 h. […] Shear bonding strength of the lap joint (cross-sectional area=2.54 cm×2.54 cm) was also measured, 1.1 MPa (standard deviation=0.3, n=4)—similar to Dopa-functionalized polypeptide prepared under ambient dry conditions, 0.9 MPa. […] Nevertheless, the results present that the zwitterionic surfactants were capable of micro-gap-filling as well as nano-gap-filling shown in AFM and SFA, and indicate that they are more versatile than surface primers. The results also attest to the self-assembling ability of Z-Cat-C10 (FIGS. 13A-13C, double bilayer structure).

This is an account of results in patent US12415939B2, “Nano-adhesive and surface primer compound and use thereof” (The Regents of the University of California, priority 2015, dated 2025).

With `C[N+](C)(CCCc1ccccc1)CCOP(=O)([O-])OCCCc1ccc(O)c(O)c1` [Z-Cat-Ben], the “interfacial energy Wad between silica bead and SAM” value in assay [1] is listed as approximately 0.07 mJ/m^2.

Consider `CN(C)CCOP(=O)(O)OCCCc1ccc(O)c(O)c1` [Z-Cat-C10], for which the “shear bonding strength of the lap joint” value in assay [2] came out at 1.1 MPa. The “load held by lap joint” value in assay [3] (dry ambient conditions (Z-Cat-C10 joint prepared in aqueous periodate)) is reported as not above 1.1 kg; in assay [3] (prepared in 1 M periodate, after 12 h ambient drying) it was 11 N; in assay [3] (prepared in DI water), 1 N; in assay [3] (underwater, prepared in artificial seawater or periodate solution) it was “up to 3 N”.
